According to patent US6833372B2, “Non-peptide GnRH agents, Pharmaceutical compositions, and methods for their use” (Pfizer, Inc., priority 2002, dated 2004):

Columns and labels:
human GnRH receptors = molecular target: T1, human GnRH receptors (Homo sapiens, UniProt P30968); test: Radioligand binding: inhibition of 125I-GnRH-A binding to human GnRH receptor membranes; settings: HEK 293 cell membranes
T1 construct: expressed in transfected cells; host or cells: HEK 293 cells, stably transfected; membranes
T1 sequence (P30968 1-328): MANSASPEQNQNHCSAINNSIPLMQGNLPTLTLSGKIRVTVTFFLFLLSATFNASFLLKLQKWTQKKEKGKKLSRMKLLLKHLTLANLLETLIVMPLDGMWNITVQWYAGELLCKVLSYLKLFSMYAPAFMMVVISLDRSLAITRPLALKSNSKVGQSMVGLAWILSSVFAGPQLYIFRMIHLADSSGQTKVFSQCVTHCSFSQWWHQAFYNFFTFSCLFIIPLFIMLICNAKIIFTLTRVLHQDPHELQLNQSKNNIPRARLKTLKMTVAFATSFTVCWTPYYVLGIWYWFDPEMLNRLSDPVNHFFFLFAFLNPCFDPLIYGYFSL
Method: HEK 293 cells stably transfected with mouse or human GnRH receptors as described above were grown in Dulbecco's high-glucose, modified Eagle's medium (DMEM) supplemented with 0.2% G418, 10% fetal bovine serum (FBS) and 100 U/mL penicillin/streptomycin. GH3 cells stably transfected with the rat GnRH receptor (GGH3) were provided by Dr. William Chin (Harvard Medical School, Boston, Mass.). These cells have been extensively characterized previously (Kaiser et al., 1997). The cells were grown in low glucose DMEM containing: 100U/mL penicillin/streptomycin, 0.6% G418 and 10% heat-inactivated FBS.
(§1) HEK 293 cells containing mouse or human receptors, or rat pituitaries (Pel Freez Biologicals, Rogers, Ark.) were homogenized in buffer A containing: 50 mM Tris (pH 7.4), 0.32 M sucrose, 2 mM EGTA, 1 mM PMSF, 5 μg/ml aprotinen, 5 μg/ml Pepstatin A, and 1 μg/ml leupeptin. Homogenized cells were centrifuged at 4° C. at 20,000×g for 25 minutes, re-suspended in buffer A and re-centrifuged at 4° C. at 20,000×g for an additional 25 minutes. Total membrane protein was determined with a BCA kit (Pierce, Rockford, Ill.). Membranes were stored at −70° C. at a final membrane protein concentration of approximately 5 mg/ml.
(§2) The radioiodinated agonist analog of GnRH, [des-Gly^10,D-Ala^6]GnRH ethylamide (^125I-GnRH-A), was used as the radioligand. […] The reaction mixture was vortexed and incubated for 1 minute at room temperature. After one minute, the mixture was vortexed and allowed to incubate for an additional minute. 2 ml of 0.5 M acetic acid/1% BSA was added to the reaction tube and the mixture was added to a C18 Sep-Pak cartridge. The cartridge was washed with subsequent washes of 5 ml H2O and 5 ml 0.5 M acetic acid and then eluted with 5×1 ml of 60% CH3CN/40% 0.5 M acetic acid. The eluate was diluted with 3× volume of HPLC buffer A (0.1% TFA in H2O) and loaded onto a C18 column. The iodinated product was eluted over 20-25 min with a gradient of 25-100% CH3CN containing 0.1% TFA. The radioactive fractions (750 μl/fraction) were collected into clean polypropylene tubes containing 100 μl of 10% BSA. Fractions were assessed for biological activity by radioligand binding. Specific activity of the radioligand was approximately 2200 Ci/mmol.
(§3) Membranes were diluted to 0.01-0.5 mg/ml (depending upon the species of receptor) with assay buffer containing 50 mM HEPES (pH 7.4), 1 mM EDTA, 2.5 mM MgCl2, and 0.1% BSA. Membranes (diluted to utilize similar receptor numbers between assays) were incubated with approximately 0.04-0.06 nM ^125I-GnRH-A in the presence or absence of competing agents (0.1-10,000 nM) in a total volume of 200 μl in 96-well polypropylene plates for 1 hour at room temperature. Assays were stopped by rapid filtration onto 96-well GF/C filters soaked in 0.1% polyethylenimine (PEI) utilizing a Packard 96-well cell harvester. Filters were washed three times with ice-cold PBS (50 mM NaPO4, 0.9% NaCl, 2 mM MgCl2, and 0.02% NaN3, pH 7.4). 35 μl of scintillation cocktail was added to each filter well and filters were counted on a Packard Topcount. Control dose-response curves were generated to GnRH (0.1 nM-100 nM) in each competition binding experiment. Ki values were calculated from IC50 values according to Cheng et al., Biochemical Pharmacol. 22: 3099-3108, 1973. [formula]

rat GnRH receptor = molecular target: T2, rat GnRH receptor (Rattus norvegicus, UniProt P30969); test: Radioligand binding: inhibition of 125I-GnRH-A binding to rat GnRH receptor (rat pituitary membranes); settings: read-out: Ki (nM), Inhibition Binding of 125I-GnRH-A to GnRH Receptors
T2 construct: or rat pituitaries (Pel Freez Biologicals, Rogers, Ark.) were homogenized; tissue Pel Freez Biologicals; host or cells: rat pituitaries (membrane preparation)
T2 sequence (P30969 1-327): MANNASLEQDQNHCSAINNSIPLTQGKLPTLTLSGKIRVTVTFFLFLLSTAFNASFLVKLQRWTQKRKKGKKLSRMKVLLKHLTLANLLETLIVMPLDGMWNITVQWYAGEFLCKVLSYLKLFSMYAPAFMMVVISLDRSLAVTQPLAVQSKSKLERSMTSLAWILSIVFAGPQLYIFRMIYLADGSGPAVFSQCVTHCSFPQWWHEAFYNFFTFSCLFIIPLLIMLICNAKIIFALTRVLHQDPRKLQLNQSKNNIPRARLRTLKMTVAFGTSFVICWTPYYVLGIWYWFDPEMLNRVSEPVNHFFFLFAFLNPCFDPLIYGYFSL
Method: as §1, §2, §3

SMILES	Ki (human GnRH receptors) [nM]	Ki (rat GnRH receptor) [nM]
COc1nc(N(C)CCCCCCO)nc(OC)c1NC(=O)c1ccc(Cc2cc3c(cc2C)C(C)(C)OC3(C)C)o1 [Example D41, N-{2-[(6-Hydroxyhexyl)(methyl)amino]-4,6-dimethoxypyrimidin-5-yl}-5-[(1,1,3,3,6-pentamethyl-1,3-dihydro-2-benzofuran-5-yl)methyl]-2-furamide]	12	15
COCCOc1nc(OC)c(NC(=O)c2ccc(Cc3cc4c(cc3C)C(C)(C)OC4(C)C)o2)c(OC)n1 [Example A4, 5-(1,1,3,3,6-Pentamethyl-1,3-dihydro-isobenzofuran-5-ylmethyl)-furan-2-carboxylic acid [4,6-dimethoxy-2-(2-methoxy-ethoxy)-pyrimidin-5-yl]-amide]	18	9.5
COCCNc1nc(OC)c(NC(=O)c2ccc(Cc3cc4c(cc3C)C(C)(C)OC4(C)C)o2)c(OC)n1 [Example D74]	3	1.1
COc1nc(NCCCN(C)C)nc(OC)c1NC(=O)c1ccc(Cc2c(C)cc(C)c3c2OCC3(C)C)o1 [Example H4, N-(2-{[3-(Dimethylamino)propyl]amino}-4,6-dimethoxypyrimidin-5-yl)-5-[(3,3,4,6-tetramethyl-2,3-dihydro-1-benzofuran-7-yl)methyl]-2-furamide]	13	16
COc1nc(NC2CCN(C)CC2)nc(OC)c1NC(=O)c1ccc(Cc2cc3c(cc2C)C(C)(C)OC3(C)C)o1 [Example D13, N-{4,6-Dimethoxy-2-[(1-methylpiperidin-4-yl)amino]pyrimidin-5-yl}-5-[(1,1,3,3,6-pentamethyl-1,3-dihydro-2-benzofuran-5-yl)methyl]-2-furamide]	38	16
COc1nc(NCCCN2CCN(C)CC2)nc(OC)c1NC(=O)c1ccc(Cc2c(C)cc3c(c2C)C(C)(C)CCO3)o1 [Example I2, N-(4,6-Dimethoxy-2-{[3-(4-methylpiperazin-1-yl)propyl]amino}pyrimidin-5-yl)-5-[(4,4,5,7-tetramethyl-3,4-dihydro-2H-chromen-6-yl)methyl]-2-furamide]	24	16
COc1nc(NCc2ccc(N)cc2)nc(OC)c1NC(=O)c1ccc(Cc2cc3c(cc2C)C(C)(C)OC3(C)C)o1 [Example D44, N-{2-[(4-Aminobenzyl)amino]-4,6-dimethoxypyrimidin-5-yl}-5-[(1,1,3,3,6-pentamethyl-1,3-dihydro-2-benzofuran-5-yl)methyl]-2-furamide]	8.6	3.4
COc1nc(N2CCc3nc(N(C)C)ncc3C2)nc(OC)c1NC(=O)c1ccc(Cc2cc3c(cc2C)C(C)(C)OC3(C)C)o1 [Example D59, N-{2-[2-(Dimethylamino)-7,8-dihydropyrido[4,3-d]pyrimidin-6(5H)-yl]-4,6-dimethoxypyrimidin-5-yl}-5-[(1,1,3,3,6-pentamethyl-1,3-dihydro-2-benzofuran-5-yl)methyl]-2-furamide]	42	14
CCCCC(CC)COCCCNc1nc(OC)c(NC(=O)c2ccc(Cc3cc4c(cc3C)C(C)(C)OC4(C)C)o2)c(OC)n1 (stereo not shown) [Example D39, N-[2-({3-[(2-Ethylhexyl)oxy]propyl}amino)-4,6-dimethoxypyrimidin-5-yl]-5-[(1,1,3,3,6-pentamethyl-1,3-dihydro-2-benzofuran-5-yl)methyl]-2-furamide]	19	5.4

Further lines, results first:

Ki (human GnRH receptors) [nM]	Ki (rat GnRH receptor) [nM]	SMILES
8.7	1.9	COc1nc(NCCCn2ccnc2)nc(OC)c1NC(=O)c1ccc(Cc2cc3c(cc2C)C(C)(C)OC3(C)C)o1 [Example D19, N-(2-{[3-(1H-Imidazol-1-yl)propyl]amino}-4,6-dimethoxypyrimidin-5-yl}-5-[(1,1,3,3,6-pentamethyl-1,3-dihydro-2-benzofuran-5-yl)methyl]-2-furamide]
36	4.4	COc1nc(NCC(c2ccc[nH]2)C(F)(F)F)nc(OC)c1NC(=O)c1ccc(Cc2cc3c(cc2C)C(C)(C)OC3(C)C)o1 (stereo not shown) [Example D57, N-(4,6-Dimethoxy-2-{[3,3,3-trifluoro-2-(1H-pyrrol-2-yl)propyl]amino}pyrimidin-5-yl)-5-[(1,1,3,3,6-pentamethyl-1,3-dihydro-2-benzofuran-5-yl)methyl]-2-furamide]
1	0.5	CNCCNc1nc(OC)c(NC(=O)c2ccc(Cc3cc4c(cc3C)C(C)(C)OC4(C)C)o2)c(OC)n1 [Example D20, N-(4,6-Dimethoxy-2-{[2-(methylamino)ethyl]amino}-pyrimidin-5-yl}-5-[(1,1,3,3,6-pentamethyl-1,3-dihydro-2-benzofuran-5-yl)methyl]-2-furamide]
36	45	CCOCCN(CCOCC)c1nc(OC)c(NC(=O)c2ccc(Cc3cc4c(cc3C)C(C)(C)OC4(C)C)o2)c(OC)n1 [Example D49, N-{2-[Bis(2-ethoxyethyl)amino]-4,6-dimethoxypyrimidin-5-yl}-5-[(1,1,3,3,6-pentamethyl-1,3-dihydro-2-benzofuran-5-yl)methyl]-2-furamide]
27	26	COc1nc(NCCCN2CCOCC2)nc(OC)c1NC(=O)c1ccc(Cc2c(C)cc3c(c2C)C(C)(C)CCO3)o1 [Example I1, N-{4,6-Dimethoxy-2-[(3-morpholin-4-ylpropyl)amino]pyrimidin-5-yl}-5-[(4,4,5,7-tetramethyl-3,4-dihydro-2H-chromen-6-yl)methyl]-2-furamide]
11	8.2	COc1nc(NCCCN2CCN(C)CC2)nc(OC)c1NC(=O)c1ccc(Cc2c(C)cc(C)c3c2OCC3(C)C)o1 [Example H5]
30	14	COc1nc(NCC2(O)CCN(C)CC2)nc(OC)c1NC(=O)c1ccc(Cc2cc3c(cc2C)C(C)(C)OC3(C)C)o1 [Example D56, N-(2-{[(4-Hydroxy-1-methylpiperidin-4-yl)methyl]amino}-4,6-dimethoxypyrimidin-5-yl)-5-[(1,1,3,3,6-pentamethyl-1,3-dihydro-2-benzofuran-5-yl)methyl]-2-furamide Acetate]
7.6	9	COc1nc(Oc2ccccc2)nc(OC)c1NC(=O)c1ccc(Cc2cc3c(cc2C)C(C)(C)OC3(C)C)o1 [Example A2, 5-(1,1,3,3,6-Pentamethyl-1,3-dihydro-isobenzofuran-5-ylmethyl)-furan-2-carboxylic acid (4,6-dimethoxy-2-phenoxy-pyrimidin-5-yl)-amide]
